Columns and labels:
[1] = target: T1, High affinity cGMP-specific 3',5'-cyclic phosphodiesterase 9A (Homo sapiens, UniProt O76083); experiment: Inhibition of PDE9 (unknown origin) using [3H]-cGMP as substrate after 1 hr by scintillation counting method
[2] = target: T1, High affinity cGMP-specific 3',5'-cyclic phosphodiesterase 9A; experiment: Inhibition of PDE9 (unknown origin) at 10 uM using [3H]-cGMP as substrate after 1 hr by scintillation counting method relative to control
[3] = Basic dissociation constant, pKa of compound at 10 uM by UV/Vis spectroscopy; type: physicochemical
[4] = Acidic dissociation constant, pKa of compound at 10 uM by UV/Vis spectroscopy; type: physicochemical

T1 sequence (O76083 whole entry): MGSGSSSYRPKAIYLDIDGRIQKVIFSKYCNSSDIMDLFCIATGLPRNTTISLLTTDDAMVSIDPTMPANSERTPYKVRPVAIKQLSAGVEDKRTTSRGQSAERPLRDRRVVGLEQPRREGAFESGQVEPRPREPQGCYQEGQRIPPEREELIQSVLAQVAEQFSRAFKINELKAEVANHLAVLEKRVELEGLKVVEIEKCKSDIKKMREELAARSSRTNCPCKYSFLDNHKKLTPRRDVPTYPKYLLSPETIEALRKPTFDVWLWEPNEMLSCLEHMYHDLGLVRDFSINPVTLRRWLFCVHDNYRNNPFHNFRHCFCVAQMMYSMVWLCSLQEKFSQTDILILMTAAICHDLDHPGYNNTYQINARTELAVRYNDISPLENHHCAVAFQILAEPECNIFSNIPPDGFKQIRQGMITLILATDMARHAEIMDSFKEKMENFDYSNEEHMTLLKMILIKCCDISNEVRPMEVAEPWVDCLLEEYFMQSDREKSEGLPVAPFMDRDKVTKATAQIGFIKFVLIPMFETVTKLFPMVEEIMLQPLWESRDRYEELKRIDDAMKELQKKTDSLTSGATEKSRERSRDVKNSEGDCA

Structure (SMILES)	IC50 [1] [nM]	inhibition [2] [%]	further results
Cc1ncc(CN2C[C@@H](C)[C@](F)(c3nc4c(cnn4C4CCOCC4)c(=O)n3C)C2)cn1		14	
Cc1cnc(CN2C[C@@H](C)[C@H](c3nc4c(cnn4C4CCOCC4)c(=O)n3C)C2)cn1		66	
Cc1cnc(CN2C[C@@H](C)[C@](F)(c3nc4c(cnn4C4CCOCC4)c(=O)n3C)C2)cn1		22	
C[C@@H]1CN(Cc2ncccn2)C[C@@]1(F)c1nc2c(cnn2C2CCOCC2)c(=O)[nH]1			pKa at 10 µM [3]: 5.6; pKa at 10 µM [4]: 8.4
C[C@@H]1CN(Cc2ncccn2)C[C@H]1c1nc2c(cnn2C2CCOCC2)c(=O)[nH]1 [EDELINONTRINE]			pKa at 10 µM [3]: 6.8; pKa at 10 µM [4]: 9.6
Cc1ncc(CN2C[C@@H](C)[C@H](c3nc4c(cnn4C4CCOCC4)c(=O)[nH]3)C2)cn1	36		

Now from value to compound, other results behind:

IC50 [1] [nM]	inhibition [2] [%]	Structure (SMILES)	further results
59		Cc1cnc(CN2C[C@@H](C)[C@H](c3nc4c(cnn4C4CCOCC4)c(=O)[nH]3)C2)cn1	
17		C[C@@H]1CN(Cc2ccc(F)cc2)C[C@H]1c1nc2c(cnn2C2CCOCC2)c(=O)[nH]1	
